The values below are quoted from earlier work in patent US7943796B2, “Lubricating oil additive and lubricating oil composition containing same” (Chevron Oronise Company LLC, priority 2008, dated 2011).

The structures appear in SMILES notation.

This series deals with estrogen-inducible strain of yeast. To be noted: among alkylphenols, compared with 17β-estradiol.

In the case of `CC(C)(C)CC(C)(C)c1ccc(O)cc1` [4-tert-octylphenol, 4-(1,1,3,3-Tetramethyl-butyl)-phenol], the estrogenic activity entry is recorded as “highest activity”.
